Data on two molecules can be found in US9278932B1, “Process for preparation of 2-chloro-N-(4-chloro-3-pyridin-2-ylphenyl)-4-methylsulfonylbenzamide solid forms” (SHILPA MEDICARE LIMITED, priority 2013, dated 2016).

The nature of data set [1]: storage and handling stability of the solid form. In kind it is physicochemical.
The conditions of data set [2]: crystalline free base; cited from earlier work.

For the molecule `CS(=O)(=O)c1ccc(C(=O)Nc2ccc(Cl)c(-c3ccccn3)c2)c(Cl)c1` [Form-SV, 2-Chloro-N-(4-chloro-3-pyridin-2-ylphenyl)-4-methylsulfonylbenzamide], the “stability on handling and storage (morphology and physicochemical characteristics)” value in data set [1] (solid crystalline form, stored for longer time) is reported as “quite stable”. Besides, the “time stable to handle and store without any significant or measurable change in morphology and physicochemical characteristics” value in data set [1] (solid crystalline material after drying, storage) was “more than 6 months”.

As for `CS(=O)(=O)c1ccc(C(=O)Nc2ccc(Cl)c(-c3ccccn3)c2)c(Cl)c1` [Vismodegib], the solubility entry in data set [2] is given as “pH dependent solubility”.
